# According to patent US20090075867A1, “Triazine compounds and compositions thereof for the treatment of cancers” (priority 2005, published 2009):
# Read-outs that look alike come from different tables or passages of the source.
# How the values were obtained:
# [1] = system: B16F10 lung metastases; assay type: in vivo
# Procedure: Female 6-8-week old C57BL/6 mice were injected intravenously on day 0 with 1-2.5×10^5 B16F10 melanoma cells from ATCC (source of cell culture, Dr. I. J. Fidler). B16F10 melanoma cells are a highly metastatic cell line which preferentially forms nodules in the lungs. Cells were cultured in DMEM supplemented with 10% fetal bovine serum. […] Fourteen days after inoculation, mice were sacrificed and their lungs were removed, rinsed in PBS, and placed in Bouin's fixative. The number of metastatic nodules (black colonies) on the surface of the lungs were counted.
# [2] = system: PC-3, human prostate carcinoma cell; experiment: In vitro cytotoxicity (MTT) on PC-3; assay type: cell-based
# Procedure: (§1) This assay was performed to determine the effect of compounds of the present invention on cell cytotoxicity. Cells were incubated in presence or absence of compounds in their respective conditioned media. […] The supernatant was discarded and 100 μl of dimethylsulfoxide (DMSO) was added. Absorbance was read at […] with an ELISA Tecan SUNRISE™ plate reader. The control group consisted of cells without compounds and is referred to as 100% of viable cells. IC50 was determined using PRISM® software.
# (§2) The predictive utility of cell-based cytotoxicity assays to assess the potential in vivo anticancer activity of compounds with selected cancer cell lines is well established in the art and the use of whole cells, instead of isolated protein receptors or enzymes, provides a more reliable determination of activity. See, for example, Paull et al. J. Natl. Cancer Inst. 81:1088-1092 (1989); Monks et al. J. Natl. Cancer Inst. 83:757-766 (1991); Bandes et al. J. Natl. Cancer Inst. 86:770-775 (1994); and Kamate et al. Intl. J. Cancer 100:571-579 (2002).
# [3] = system: B16F10, murine melanoma cell; experiment: In vitro cytotoxicity (MTT) on B16F10; assay type: cell-based; conditions: Mus musculus, B16-F10
# Procedure: as §1, §2
# [4] = system: P815, murine mastocytoma cell; experiment: In vitro cytotoxicity (MTT) on P815; assay type: cell-based; conditions: Mus musculus
# Procedure: as §1, §2
# [5] = system: PBML, Peripheral Blood Mononuclear Leukocytes; experiment: In vitro cytotoxicity (MTT) on PBML; assay type: cell-based; conditions: Leukocyte
# Procedure: as §1, §2
# [6] = system: NHDF, Normal Human Dermal Fibroblast; experiment: In vitro cytotoxicity (MTT) on NHDF; assay type: cell-based
# Procedure: as §1, §2
# [7] = system: Hep-G2, human liver cell; experiment: In vitro cytotoxicity (MTT) on Hep-G2; assay type: cell-based; conditions: HepG2, 24-hour cell culture
# Procedure: as §1, §2
# [8] = system: CAKI-2, human kidney cell; experiment: In vitro cytotoxicity (MTT) on CAKI-2; assay type: cell-based; conditions: 24-hour cell culture
# Procedure: as §1, §2
# [9] = system: DA-3; experiment: In vitro cytotoxicity (MTT) on DA-3; assay type: cell-based, BALB/c mice; conditions: Mus musculus
# Procedure: as §1, §2
# The syngeneic tumor DMBA3 (DA-3, breast carcinoma model) arose from a preneoplastic lesion treated with 7,12-dimethylbenzanthracene in female BALB/c mice. DA-3 cells were grown as monolayer cultures in plastic flasks in RPMI-1640 containing 0.1 mM nonessential amino acids, 0.1 μM sodium pyruvate, 2 mM L-glutamine. This was further supplemented with 50 μM 2-mercaptoethanol and 10% fetal bovine serum. The DA-3 tumors were serially passage in vivo by intradermal inoculation of 5×10^5 viable tumor cells to produce localized tumors in 6- to 8-week old BALB/c mice. The animals were then serially monitored by manual palpation for evidence of tumor. Mice were treated at day 11, 18 and 25 with cyclophosphamide (100 mg/kg) and at day 11, 12, 13, 15, 18, 20, 22, 25, 27 and 29 with compound 1, 2, 3 or 8 (50 mg/kg). Mice were sacrificed at day 43. Serial tumor volume was obtained by bi-dimensional diameter measurements with calipers, using the formula 0.4 (a×b^2) where “a” was the major tumor diameter and “b” the minor perpendicular diameter. […] The National Cancer Institute (USA) defines the product as effective if T/C is ≦40%.
Compound,"reduction of the number of tumor nodules ([1]; FIG. 4, used alone, compound 50 mg/kg i.v., doxorubicin 1 mg/kg) [%]",IC50 ([2]; 24-hour cell culture) [µM],IC50 ([2]; 72-hour cell culture) [µM],IC50 ([3]; 24-hour cell culture) [nM],IC50 ([3]; 72-hour cell culture) [nM],IC50 ([4]; 24-hour cell culture) [µM],IC50 ([4]; 72-hour cell culture) [µM],IC50 ([5]; 24-hour cell culture) [µM],IC50 ([5]; 72-hour cell culture) [µM],IC50 ([6]; 24-hour cell culture) [µM],IC50 ([6]; 72-hour cell culture) [µM],IC50 [7] [µM],IC50 [8] [µM],IC50 ([9]; 24-hour cell culture) [µM],"inhibition of the number of tumor nodules in lungs ([1]; FIG. 5, p<0.05) [%]",IC50 ([9]; 72-hour cell culture) [µM],"inhibition of the number of tumor nodules in lungs ([1]; FIG. 3, 50 mg/kg i.v. on day -3, -2, -1, 3, 5 and 7, p<0.001)"
"COc1cccc2c1C(=O)c1c(O)c3c(c(O)c1C2=O)C[C@@](O)(C(=O)CO)C[C@@H]3O[C@H]1C[C@H](N)[C@H](O)[C@H](C)O1 [doxorubicin, reference compound]",90,,,,,,,,,,,,,,,,
CN1CCN(c2nc(NCCc3ccc(Nc4nc(Nc5cccc(N)c5)nc(N5CCN(C)CC5)n4)cc3)nc(Nc3cccc(N)c3)n2)CC1 [Compound 18],,12.2,10.3,1100,600,2.5,0.7,,,,,,,,,,
Nc1cccc(Nc2nc(NCCO)nc(Nc3ccc(Nc4nc(NCCO)nc(Nc5cccc(N)c5)n4)cc3)n2)c1 [Compound 4],,78,37,12000,37000,86,32,100,> 100,> 100,> 100,,,,,,
Nc1ccc(CCNc2nc(NCCNc3nc(NCCc4ccc(N)cc4)nc(Nc4cccc(N)c4)n3)nc(Nc3cccc(N)c3)n2)cc1 [Compound 3],,> 100,15,4000,6000,33,3,> 100,> 100,> 100,> 100,> 40,> 40,,,,
Nc1cccc(Nc2nc(NCCO)nc(Nc3cccc(Nc4nc(NCCO)nc(Nc5cccc(N)c5)n4)c3)n2)c1 [Compound 6],,63,,2600,,> 100,> 100,> 100,> 100,> 100,> 100,,,30,,,
Nc1cccc(Nc2nc(NCCO)nc(Nc3cccc(Nc4nc(NCCO)nc(Nc5cccc(F)c5)n4)c3)n2)c1 [Compound 14],,29.9,15.6,2600,10200,13.1,7.8,,,,,,,,50,,
CN(C)c1nc(NCCc2ccc(Nc3nc(Nc4cccc(N)c4)nc(N(C)C)n3)cc2)nc(Nc2cccc(N)c2)n1 [Compound 7],,85,8,2200,3000,20,1.3,> 100,79,> 100,> 100,,,,,,
CN(C)c1nc(NCCc2ccc(Nc3nc(NCCO)nc(Nc4cccc(N)c4)n3)cc2)nc(Nc2cccc(N)c2)n1 [Compound 12],,11,3.3,1200,2000,13.5,2.8,,,,,,,,,,
CN1CCN(c2nc(Nc3ccc(CCNc4nc(NCCO)nc(Nc5cccc(N)c5)n4)cc3)nc(Nc3cccc(N)c3)n2)CC1 [Compound 13],,11,6.1,1900,2200,6.5,2.1,,,,,,,,,,
CN(C)c1nc(Nc2ccc(CCNc3nc(NCCO)nc(Nc4cccc(N)c4)n3)cc2)nc(Nc2cccc(N)c2)n1 [Compound 16],,20.3,5.1,500,3500,12.6,2.4,,,,,,,,,,
Nc1cccc(Nc2nc(NCCNc3nc(Nc4cccc(N)c4)nc(Nc4cccc(O)c4)n3)nc(Nc3cccc(O)c3)n2)c1 [Compound 11],,4.4,4.9,1400,6300,21.2,4.8,,,,,,,,,,
Nc1cccc(Nc2nc(N)nc(Nc3cccc(Nc4nc(N)nc(Nc5cccc(N)c5)n4)c3)n2)c1 [Compound 5],,50,26,8500,39000,> 100,44.7,> 100,> 100,> 100,78,,,20,,,
Nc1cccc(Nc2nc(NCCO)nc(NCCc3ccc(Nc4nc(NCCc5ccccc5N)nc(Nc5cccc(N)c5)n4)cc3)n2)c1 [Compound 17],,11.6,4,1200,3600,14.5,1.5,,,,,,,,,,
Nc1cccc(Nc2nc(NCCO)nc(NCc3cccc(F)c3)n2)c1 [Compound 9],,> 100,> 100,> 100000,91000,> 100,43,> 100,> 100,> 100,> 100,,,,,,
Nc1cccc(Nc2nc(NCCO)nc(Nc3ccc(Nc4nc(NCCO)nc(Nc5cccc(F)c5)n4)cc3)n2)c1 [Compound 19],,8.2,5.7,2800,6200,16.4,8.6,,,19.4,,,,4.5,,13.4,
CC(Nc1nc(Nc2cccc(N)c2)nc(Nc2cccc(N)c2)n1)c1cccc(N)c1 (stereo not drawn) [Compound 10],,74,,62000,36000,> 100,36.6,> 100,> 100,> 100,> 100,,,> 100,,,significant inhibition
Nc1cccc(CCNc2nc(Nc3ccc(CCNc4nc(NCCO)nc(Nc5cccc(N)c5)n4)cc3)nc(Nc3cccc(N)c3)n2)c1 [Compound 15],,10.9,4.3,1800,2900,13.4,3.3,,,,,,,,,,
